Where two headings read alike, the source gives them in different places. Marks after values point to notes of the source that are not given here.
Tests used:
H9c2 cells = test: Mitochondrial anion superoxide production, MitoSOX flow cytometry; assay type: cell-based; conditions: for increase in MitoSOX mean intensity (anion superoxide production): H9c2, acute, Antimycin A 10 μg/mL, Doxo 5 μM
Procedure: (§5) Thiol groups in the adenine nucleotide translocase were measured by eosin 5-maleimide interaction (EMA) with cysteine residues susceptible to oxidative stress or oxidizing agents [21] and followed by SDS/PAGE electrophoresis. […] Experiments for anion superoxide production were performed in intact cardiomyoblasts using the fluorescent probe MitoSOX (Molecular Probes) in the flow cytometer. H9c2 cells were loaded with MitoSOX during 15 min at 37°C with a cell density of 100,000 cells/mL (final concentration of MitoSOX 5 μM). Afterwards, the cells were subjected to Cas III-Ea treatment (4 or 20 μM); DOXO (5 μM) and Antimycin A (10 μg/mL) were used as positive controls. Finally, the cells were washed and analyzed on a FACSCanto II (BD Biosciences). FACS data was analyzed using FlowJo version 10.0 (Tree Star).

isolated rat hearts [1] = test: Langendorff-perfused isolated rat heart: mechanical performance (RPP, HR, ±dP/dt, cardiac efficiency); conditions: for decrease of cardiac efficiency (CE): at IC50 for RPP; for +dP/dt × 1000 (contraction rate) / Cardiac efficiency / −dP/dt × 1000 (relaxation rate): hearts treated at the IC50; for t 0.5, time for half-inhibition of RPP / RPP reduction from baseline: 5 μM; for heart rate (HR) reduction: perfused at 5 μM; for IC50: read-out: IC50, half-maximal inhibitory concentration for RPP (heart contractile function)
Procedure: (§1) Male Wistar rats (250–300 g) were injected with heparin (10^3 U·kg^−1, i.p.) 20 minutes prior to anesthesia with pentobarbital (100 mg·kg^−1, i.p.). When bilateral corneal reflex was absent, the heart was excised through an abdominal approach. Then, the ascending aorta was visualized and cut and the heart was placed in a cardioplegic solution. To avoid ischemia, the time between cutting the diaphragm to placing the heart in the solution was less than 60 seconds. The hearts were mounted in accordance with the Langendorff model and perfused at a constant flow (12 ml·min^−1) with a Krebs-Henseleit buffer as previously described. A latex balloon connected to a pressure transducer filled with saline solution was inserted into the left ventricle after establishing autonomous contraction. The pulmonary artery was cannulated and connected to a closed chamber using a Clark-type oxygen electrode (Yellow Springs Instruments, Yellow Springs, Ohio) to measure myocardial oxygen consumption (MVO2) in the coronary effluent. The rate of MVO2 was calculated as the difference between the concentration in the K-H buffer before (100%) and after perfusion. Data Trax software (WPI, Sarasota, Florida) was used for continuous recording of the heart rate (HR), left ventricular pressure (LVP), MVO2, and maximum positive and negative derivative of left ventricular pressure (±dP/dt). The baseline was established during 10–15 minutes of K-H perfusion. Each concentration of Cas or Doxo remained in the heart for 30 min. Hearts in the control group were perfused with K-H buffer during the whole experimental time. Rate pressure product (RPP = HR × LVP) and cardiac efficiency ([…]) were calculated as previously reported.

isolated rat hearts [2] = test: Myocardial oxygen consumption and energetic metabolites (ATP, PCr) in perfused hearts; conditions: Cas at IC50, Doxo 5 μM
Procedure: as §1
(§2) To measure the energetic metabolites ATP, phosphocreatine (PCr), and aconitase activity at the end of the perfusion protocols, samples were prepared as follows: the hearts were removed from the perfusion system by cutting the aorta and immediately flash-frozen with liquid N2, weighed, and stored at −80°C. Afterward, the hearts were homogenized in ice-cold buffer containing 250 mM sucrose, 10 mM HEPES, and 1 mM EDTA (pH 7.4). For enzymatic determination, aliquots of the homogenate were immediately frozen in liquid nitrogen and stored at −80°C. Quantification of ATP and PCr was carried out in a HPLC system with a dual-pump gradient (Waters Chromatography, Toronto, Canada) as previously described.

[3] = test system: mitochondria isolated from Cas-treated hearts; test: Respiratory activity of mitochondria isolated from treated hearts (Clark-type oxygen electrode); design: species or system rat; conditions: for State 4 respiration: 10 mM glutamate-malate; for Respiratory control / State 3 respiration: malate/glutamate; for State 3 respiration: after 100 μM ADP; for Max. respiration: 0.08 μM CCCP
Procedure: (§3) To measure mitochondrial oxygen consumption, mitochondrial membrane potential, and Ca^2+ uptake, cytochrome c samples were prepared as follows: after perfusion, heart tissue from the left ventricle was minced and homogenized in cold mitochondrial isolation medium (in mM: 125 KCl, 1 EDTA, and 10 HEPES-HCl; pH 7.3). The mitochondrial fraction was obtained by differential centrifugation using the protease Nagarse, as previously described. Mitochondrial oxygen consumption was measured using a Clark-type oxygen electrode. The experiments were carried out in respiration assay medium containing 125 KCl, 10 HEPES-HCl, and 3 KH2PO4 (in mM) with pH 7.3. State 4 respiration was measured in the presence of 10 mM glutamate-malate, and state 3 respiration was evaluated after addition of 100 μM ADP. Maximal respiration was determined with 0.08 μM of carbonyl cyanide m-chlorophenyl hydrazine (CCCP). The mitochondrial membrane potential was measured by fluorometry using 5 μM safranine. Mitochondrial Ca^2+ uptake was determined with the metalochromic indicator, Arsenazo III, or calcium green 5N (5N-CG), using a medium containing 50 μM Arsenazo or 10 μM 5N-CG, 10 mM succinate plus rotenone (0.1 μg·ml^−1), 200 μM ADP, and 0.25 μg oligomycin A. Pulses of 10 nmol Ca^+2 were added every 3 minutes to reach a Ca^+2 release due to MPT opening. Mitochondrial cytochrome c quantification from Cas-treated hearts was performed using Western blot analysis as described previously. The blots were developed with Luminata crescendo substrate (Merck Millipore, Darmstadt, Germany) and detected with VisionWorks LS-UVP Chimio System (BioSpectrum 415 Imaging System, Cambridge, UK).

[4] = test system: mitochondrial permeability transition pore; test: Mitochondrial Ca2+ retention capacity (MPT opening); design: species or system rat; conditions: for decrease of mitochondrial Ca2+ retention capacity: mitochondria from hearts treated at IC50, versus control
Procedure: as §3

[5] = test system: adult rat ventricular myocytes; test: Cardiomyocyte viability, Alamar Blue; assay type: cell-based; conditions: 24 h treatment, read-out: LD50 (IC50) for cardiomyocyte viability
Description: (§4) Ventricular cardiomyocytes were obtained from male Wistar rats (250–300 g) by digestion with collagenase type II as previously described. Cells were washed in Tyrode solution (mM): 130 NaCl, 5.4 KCl, 0.4 NaH2PO4, 0.5 MgCl2, 25 HEPES, and 5 glucose with pH 7.4. After isolation, cells were cultivated at a density of 3.2 × 10^3 viable cells/well in 96-well plates pretreated with laminin in M-199 medium supplemented in mM with 5 taurine, 5 creatine, 2 L-carnitine, 2.5 sodium pyruvate, and penicillin-streptomycin at 100 U·ml^−1 and 100 μg·ml^−1, respectively, at 37°C, with 5% CO2 and 95% air. After incubation for three hours, varying concentrations of Cas were tested in triplicate, exposing the myocytes during 24 hours to each treatment. At the end of the incubation period, the cytotoxicity of Cas was measured using the Alamar Blue viability test (Life Technologies, Carlsbad, CA, USA). Release of cytoplasmic lactate dehydrogenase (LDH) was determined using CytoTox-ONE homogeneous membrane integrity kit (Promega Madison, WI, USA). The activity of caspases 3/7 and caspase 9 was measured in cell lysates using caspase-Glo 3/7 and caspase-Glo 9 test luminescent assay (Promega, Madison, WI, USA), respectively. The cardiomyoblast cell line H9c2 (ATCC CRL-1446) was maintained using standard procedures in DMEM supplemented with 10% fetal bovine serum prior to the oxidative stress experiments.

isolated cardiomyocytes = test: LDH release (CytoTox-ONE); assay type: cell-based, rat; conditions: cardiomyocytes treated at IC50 (II-gly 2 μM, Doxo 10 μM)
Description: as §4

caspases 3 and 7 = test: Caspase-Glo 3/7 activity in cell lysates; assay type: cell-based, rat; conditions: cardiomyocytes treated at IC50, compared to Doxo or the control
Description: as §4

caspase 9 = test: Caspase-Glo 9 activity in cell lysates; assay type: cell-based, rat; conditions: cardiomyocytes treated at IC50
Description: as §4

cytochrome c = test: Mitochondrial cytochrome c content by Western blot; design: species or system rat; conditions: heart mitochondria after 30 min perfusion at IC50
Procedure: as §3, with “Mitochondrial cytochrome c quantification from Cas-treated hearts was performed using Western blot analysis as described previously. The blots were developed with Luminata crescendo substrate (Merck Millipore, Darmstadt, Germany) and detected with VisionWorks LS-UVP Chimio System (BioSpectrum 415 Imaging System, Cambridge, UK).” left out

[6] = test system: mitochondria isolated from treated hearts; test: Mitochondrial membrane potential (safranine fluorometry); design: species or system rat
Procedure: as §3, with “Mitochondrial cytochrome c quantification from Cas-treated hearts was performed using Western blot analysis as described previously. The blots were developed with Luminata crescendo substrate (Merck Millipore, Darmstadt, Germany) and detected with VisionWorks LS-UVP Chimio System (BioSpectrum 415 Imaging System, Cambridge, UK).” left out

[7] = target: T1, adenine nucleotide translocase (Rattus norvegicus, UniProt Q05962); test: Thiol groups of adenine nucleotide translocase (eosin 5-maleimide); conditions: mitochondria from hearts treated at IC50
T1 construct: adenine nucleotide translocase from mitochondria isolated from Cas-treated hearts; from tissue; host or cells: mitochondria isolated from Casiopeina-perfused rat hearts
T1 sequence (Q05962 1-298): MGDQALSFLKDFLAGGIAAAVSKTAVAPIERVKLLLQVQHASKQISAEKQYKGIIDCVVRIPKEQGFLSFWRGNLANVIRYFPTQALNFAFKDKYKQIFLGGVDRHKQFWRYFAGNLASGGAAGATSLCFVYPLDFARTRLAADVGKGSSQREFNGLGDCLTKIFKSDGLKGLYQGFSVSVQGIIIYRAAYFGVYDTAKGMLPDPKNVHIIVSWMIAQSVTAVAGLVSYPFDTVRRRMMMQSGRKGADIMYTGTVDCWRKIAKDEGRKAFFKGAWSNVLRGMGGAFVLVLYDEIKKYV
Procedure: as §5

aconitase = test: Mitochondrial aconitase activity in heart homogenates; conditions: ex vivo heart, Cas at IC50, Doxo 5 μM
Procedure: as §2

subcutaneous tumors = conditions: nude mice ref 30; cited from earlier work
[8] = isolated rat heart, at 30 min perfusion
[9] = mitochondria from treated hearts, CsA 0.5 μM added in vitro
[10] = mitochondria from CsA-III-Ea-treated hearts
[11] = mitochondria from hearts perfused with 10 μM III-Ea alone

Structure (SMILES)	increase in MitoSOX mean intensity (anion superoxide production) (H9c2 cells)	decrease of cardiac efficiency (CE) (isolated rat hearts [1])	+dP/dt × 1000 (contraction rate) (isolated rat hearts [1])	Cardiac efficiency (isolated rat hearts [1])	−dP/dt × 1000 (relaxation rate) (isolated rat hearts [1])	t 0.5, time for half-inhibition of RPP (isolated rat hearts [1]; isolated rat heart)	heart rate (HR) reduction (isolated rat hearts [1])	IC50 (isolated rat hearts [1]; [8])	State 4 respiration [3]	Respiratory control [3]	State 3 respiration [3]	decrease of mitochondrial Ca2+ retention capacity [4]	protective effect of CsA on Ca2+ retention capacity [4, 9]	IC50 [5]	increase in LDH release compared to the control (isolated cardiomyocytes)	additional MVO2 to generate the same contractile force compared to control hearts (RPP/MVO2 ratio) (isolated rat hearts [2])	change in MVO2 (isolated rat hearts [2])	decrease in ATP content (isolated rat hearts [2])	Max. respiration [3]	other results
CCCCCC[C@H]1C(=O)O[C@H](C)[C@H](NC(=O)c2cccc(NC=O)c2O)C(=O)O[C@@H](C)[C@@H]1OC(=O)CC(C)C [Antimycin A]	9 fold	–	–	–	–	–	–	–	–	–	–	–	–	–	–	–	–	–	–	–
Cc1ccnc2c1ccc1c(C)ccnc12.NCC(=O)[O-].O.O.O=[N+]([O-])[O-].[Cu+2] [Cas II-gly, Aqua(4,7-dimethyl-1,10-phenanthroline)(glycinate)copper(II)nitrate]	–	23%	2.0 ± 0.13^∗ mmHg·s^−1	4.8 ± 0.81 RPP · MVO2 ^−1	−0.7 ± 0.09^∗ mmHg·s^−1	29 ± 1.0^d min	not affected	5.5 ± 0.5 µM	13.0 ± 5.0 nmol O min^−1·mg^−1	1.6 ± 0.3^∗	20.2 ± 7.3^∗ nmol O min^−1·mg^−1	46.5%	60%	2 ± 0.5 µM	3.5 fold	–	–	–	–	PCr/ATP ratio (isolated rat hearts [2]): augmented; decrease in state 3 respiration rate ([3]; versus control): 77%; reduction in maximal respiration ([3]; versus control): 82%; increase in activity of caspases 3 and 7 (caspases 3 and 7): ~ 4 fold; increase in caspase 9 activity (caspase 9): 1.7 fold; mitochondrial cytochrome c content (cytochrome c): reduction of cytochrome c
CC(=O)C=C(C)[O-].Cc1ccnc2c1ccc1c(C)ccnc12.O.O.O=[N+]([O-])[O-].[Cu+2] [Cas III-Ea, Aqua(4,7-dimethyl-1,10-phenanthroline)(acetylacetonate)copper(II)nitrate]	–	47%	2.4 ± 0.23^∗ mmHg·s^−1	3.3 ± 0.2^∗ RPP · MVO2 ^−1	−0.8 ± 0.13^∗ mmHg·s^−1	21 ± 5.0^d min	not affected	1.3 ± 0.2 µM	24.5 ± 5.4 nmol O min^−1·mg^−1	1.5 ± 0.2^∗	37.3 ± 2.7^∗ nmol O min^−1·mg^−1	50.5%	–	2 ± 0.4 µM	–	1.47 fold	no changes	56%	48.3 ± 5.7^∗ nmol O min^−1·mg^−1	t 0.5 of decline of contractility (RPP) (isolated rat hearts [1]; 1 μM CsA perfused 10 min, then 10 μM III-Ea): 11.98 min; RPP reduction from baseline (isolated rat hearts [1]; at 20 min): 48%; RPP reduction from baseline (isolated rat hearts [1]; at 30 min): 97%; t 0.5 of decline of contractility (RPP) (isolated rat hearts [1]; 10 μM III-Ea alone): 9.65 min; more calcium tolerated than mitochondria from III-Ea hearts [4, 10]: 69%; calcium retention capacity ([4]; mitochondria from CsA-III-Ea-treated hearts (1 μM CsA before 10 μM III-Ea)): 226 ± 13 nmol/mg; calcium retention capacity [4, 11]: 133 ± 14 nmol/mg; delay in the opening of MPT in the presence of CsA [4, 9]: 1.8 fold; mitochondrial membrane potential after addition of 10 μM Ca2+ [6, 10]: remained polarized; mitochondrial membrane potential after addition of 10 μM Ca2+ [6, 11]: depolarization; change in anion superoxide production (MitoSOX) (H9c2 cells; H9c2 intact cells, 4 or 20 μM): no change; oxidation state of adenine nucleotide translocase thiol groups [7]: twofold increase
COc1cccc2c1C(=O)c1c(O)c3c(c(O)c1C2=O)C[C@@](O)(C(=O)CO)C[C@@H]3O[C@H]1C[C@H](N)[C@H](O)[C@H](C)O1 [Doxo, Doxorubicin, reference compound]	4 fold	55%	2.1 ± 0.23^∗ mmHg·s^−1	2.8 ± 0.1^∗ RPP · MVO2 ^−1	−0.8 ± 0.18^∗ mmHg·s^−1	18.6 ± 4.0^d min	24%	–	18 ± 2.0 nmol O min^−1·mg^−1	1 ± 0.3^∗	25 ± 8.8^∗ nmol O min^−1·mg^−1	–	51%	–	4.7 fold	1.8 fold	no changes	74%	25 ± 15.1^∗ nmol O min^−1·mg^−1	IC50 (isolated rat hearts [1]; Rattus norvegicus, 0.5 h): 5 ± 0.3 µM; PCr levels (isolated rat hearts [2]): decreased; IC50 ([5]; Rattus norvegicus, Ventricular myocyte): 10 ± 0.5 µM; aconitase activity (aconitase): decreased; reduction of the volume of subcutaneous tumors (subcutaneous tumors): 20%

— PMC5889877, “Ex Vivo Cardiotoxicity of Antineoplastic Casiopeinas Is Mediated through Energetic Dysfunction and Triggered Mitochondrial-Dependent Apoptosis” (Oxidative Medicine and Cellular Longevity, 2018)
